Measurements published in patent US6825176B2, “E2 displacement assay for identifying inhibitors of HPV” (Boehringer Ingelheim (Canada) Ltd., priority 2002, dated 2004).

Tests used:
[1] = molecular target: T1, transactivation domain of HPV11 E2 (TAD) (Human papillomavirus 11, UniProt P04015); experiment: HPV E2 transactivation domain (TAD) ligand displacement assay; type: binding
T1 construct: HPV11 E2 amino acids 2* -215 (*Met-1 removed); made in house; host or cells: E. coli BL21 (DE3)pLysS, plasmid pET23a(+)
Excerpt: This assay measures the binding of a radiolabeled compound (“probe”) to the transactivation domain of HPV11 E2 (TAD). The protein binds to Ni-coated Flash plates, and the measured signal being proportional to the concentration of bound probe. If a test compound binds to the TAD, it will displace the probe, which will result in a lower signal.
(§1) HPV-11 TAD: HPV11 E2 amino acids 2* -215 (*Met-1 removed) with an amino terminal epitope tag derived from the T7 phage gene 10 protein and a C-terminal His tag (SEQ ID NO.2). Total MW is 27 kDa.
25 mM MOPS, pH 7.0; 100 mM NaCl; 1 mM DTT; 0.0025% Tween-20. The pH was verified before adding DTT and Tween, and was adjusted where necessary. […]
TAD was diluted to 300 nM in assay buffer and used 20 μL […] dilution per well. […] This has a measurable effect on signal: background but little effect on z′ or measured inhibition (J.-H. Zhang, et al., 1999, J. Biomolecular Screening v4(2), 67-73). […]
The assay was performed in 96-well FlashPlates (PE/NEN). […] Plates were then sealed with TopCount-compatible sealing film, shaken briefly, incubated at room temperature, then counted on the TopCount after 3 hrs and again at 20 hrs.
The assay was run as described in Example 6. For each inhibitor concentration, the percent inhibition observed was calculated and the resulting inhibition curve was fit to a logistic using SAS. […]

[2] = molecular target: T1, transactivation domain of HPV11 E2 (TAD); experiment: isothermal titration calorimetry of probe binding to the TAD; details: isothermal titration calorimetry with its non-tritiated homolog
Experimental: Radiolabeled probe: The tritium labeled probe 1j binds to the TAD with a Kd of 40 nM, as determined by isothermal titration calorimetry with its non-tritiated homolog.
as §1

T1 sequence (P04015 2-215): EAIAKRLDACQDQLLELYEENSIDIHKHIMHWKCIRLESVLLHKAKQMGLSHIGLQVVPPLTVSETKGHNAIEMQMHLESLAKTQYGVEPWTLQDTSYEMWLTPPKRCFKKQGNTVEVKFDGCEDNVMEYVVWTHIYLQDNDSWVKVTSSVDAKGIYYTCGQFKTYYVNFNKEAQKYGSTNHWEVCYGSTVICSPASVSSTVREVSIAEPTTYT

Row | IC50 ([1]; counting at 20 hours, 50 nM TAD, 25 nM probe, FIG. 5) | IC50 ([1]; standard inhibitor, racemic mixture) | Kd [2] | Structure (SMILES)
1 | 4 ± 0.6 µM | ~10 µM | – | O=C(Nc1ccc2c(c1)OCO2)C1C(c2ccc(Cl)cc2)OC2(C(=O)c3ccccc3C2=O)C1C(=O)O (racemic) [Compound 3h]
2 | – | – | 0.04 µM | CC(=O)NCc1ccc(N2C(=O)[C@H]3[C@@H](C2=O)[C@@]2(O[C@H]3c3ccc(Br)c(Br)c3)C(=O)c3cc(C)sc3C2=O)cc1 [Compound 1j]
